Laboratory results from patent publication US6737423B2, “Substituted heterocyclo-norbornylamino derivatives, processes for their preparation, their use as medicaments or diagnostics, and medicaments comprising them” (Aventis Pharma Deutschland GmbH, priority 2000, dated 2004).
Counter-ions that a name gives are not always drawn.

What was measured:
[1] = molecular target: T1, Rat NHE3 (Rattus norvegicus, UniProt P26433); assay: NHE activity measurement (pHi recovery after acid load, transfected LAP1 cells); type: cell-based; details: stably transfected LAP1 cells, pH recovery recorded for 3 minutes, BCECF
T1 construct: expressed in transfected cells; host or cells: LAP1 (NHE-deficient cell line), stably transfected with pMAMneo plasmid
T1 sequence (P26433 29-831): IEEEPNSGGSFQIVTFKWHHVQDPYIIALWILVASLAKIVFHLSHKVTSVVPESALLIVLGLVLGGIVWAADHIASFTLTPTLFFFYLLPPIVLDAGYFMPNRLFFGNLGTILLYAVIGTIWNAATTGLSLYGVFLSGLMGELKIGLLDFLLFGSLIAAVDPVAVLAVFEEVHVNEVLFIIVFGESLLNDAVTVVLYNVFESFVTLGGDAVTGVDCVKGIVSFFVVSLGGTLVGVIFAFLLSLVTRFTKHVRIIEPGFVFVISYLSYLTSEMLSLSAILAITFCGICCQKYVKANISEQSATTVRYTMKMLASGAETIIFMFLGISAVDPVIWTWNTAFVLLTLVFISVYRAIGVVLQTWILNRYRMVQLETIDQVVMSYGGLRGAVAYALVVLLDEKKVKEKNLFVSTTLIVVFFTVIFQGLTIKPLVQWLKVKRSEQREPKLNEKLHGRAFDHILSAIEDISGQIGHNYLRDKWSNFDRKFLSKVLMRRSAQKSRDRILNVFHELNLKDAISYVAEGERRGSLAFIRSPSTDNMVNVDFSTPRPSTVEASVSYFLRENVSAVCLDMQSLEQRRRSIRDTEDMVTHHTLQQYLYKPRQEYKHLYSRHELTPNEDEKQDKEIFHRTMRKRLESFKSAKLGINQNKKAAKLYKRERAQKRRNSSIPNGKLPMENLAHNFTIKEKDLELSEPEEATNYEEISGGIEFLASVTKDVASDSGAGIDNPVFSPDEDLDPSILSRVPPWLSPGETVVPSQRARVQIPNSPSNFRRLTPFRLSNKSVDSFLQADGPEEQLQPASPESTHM
Excerpt: In the context of our studies, stably transfected cell lines were produced that in each case expressed one of the following NHE subtypes: Human NHE1 (Sardet et al. Cell 56:271-280 (1989)), rabbit NHE2 (Tse et al.; J. Biol. Chem. 268:11917-11924 (1993)), human NHE3 (Brant et al. Am. J. Physiol. 269 (Cell Physiol. 38) C198-C206 (1995)), or rat NHE3 (Orlowski et al.; J. Biol. Chem. 267:9331-9339 (1992)).
The cDNA clones of the respective NHE subtypes obtained by Prof. Pouyssegur were, after addition of suitable linker sequences, cloned into the expression plasmid pMAMneo (obtainable, for example, via CLONTECH, Heidelberg) such that the recognition sequence for the restriction endonuclease Nhel of the plasmid was approximately 20-100 Basepairs before the start codon of the respective NHE subtype and that the total coding sequence was present in the construct. In the case of the human NHE3 obtained from human kidney mRNA by means of RT-PCR, the RT-PCR primers were selected such that the cDNA band obtained had cleavage sites suitable for pMAMneo at its ends.
Using the “calcium phosphate method” (described in chapter 9.1 of “Current Protocols in Molecular Biology”), the NHE-deficient cell line LAP1 (Franchi et al.; Proc. Natl. Acad. Sci. USA 83:9388-9392 (1986)) was transfected with the plasmids that received the respective coding sequences of the NHE subtypes. […]
In this test, the recovery of the intracellular pH (pHi) after an acidification, which in the case of functional NHE occurs even under bicarbonate-free conditions, was determined. For this, the pHi was determined using the pH-sensitive fluorescent dye BCECF (Calbiochem, where the precursor BCECF-AM is employed). […] The BCECF fluorescence was determined in a “Ratio Fluorescence Spectrometer” (Photon Technology International, South Brunswick, N.J., USA) at excitation wavelengths of 505 and 440 nm and an emission wavelength of 535 nm and converted into the pHi by means of calibration curves. […]

[2] = test system: Caco-2 cell line; assay: Caco 2 model (transport through Caco-2 monolayers, absorbed fraction); type: in vitro ADME; details: apical to basolateral, pH 7.8, 37° C., test concentration 1 mM / 100 μM, from Papp via sigmoidal calibration curve
Protocol: The Caco-2 cell line was acquired from the American Type Culture Collection (ATCC) and maintained in Dulbecco's Modified Eagle medium (high glucose content), supplemented with nonessential amino acids, L-glutamine, penicillin/streptomycin, and 10% strength fetal calf serum. The Caco-2 cell line was then kept in an incubator under a 10% strength CO2 atmosphere at 95% strength relative humidity and 37° C. The cells were grown in cell culture flasks (175 cm^2). For the transport investigations, the Caco-2 cells were inoculated into polycarbonate cell culture inserts (costar Transwells®, pore size: 3 μm, area: 4.71 cm^2) at a cell density of 6.5×10^4 cells/cm^2 and incubated in six-well culture plates with a change of medium after 4 and 8 days and then every second day thereafter. 21 to 25 day-old monolayers were used for the experiments.
In each test series, a 21 day-old monolayer was tested for its properties with ^3H-dextran as a permeability marker. The value of the transfer rate (cumulative) had to be in the range of 2% after 120 min.
After eliminating the growth medium from the apical and the basolateral side, the monolayers were rinsed with the transport buffer (Hank's balanced salt solution, pH 7.8; containing 2.8 g/l glucose).The cells were then equilibrated for 15 min at 37° C. under a 10% strength C02 atmosphere. The HBSS buffer was then removed. The test compounds were dissolved in a mixture of HBSS buffer and DMSO and added to the apical buffer such that a 1% strength (v/v) DMSO solution resulted. The test concentration in the first experiment was 1 mM, and 100 μM in the second. The experiments were carried out at 37° C. and started by the addition of 1.5 ml of test solution to the donor side (apical). Transport buffer without compound was added to the recipient side (basolateral, 2.5 ml). At various points in time, samples were taken from the basolateral side (1 ml) and replaced by fresh buffer solution at 37° C. […]
The compounds were analyzed by means of HPLC.
The apparent permeability coefficient (Papp) was calculated by means of the following equation: [formula]
wherein dc/dt is the flow through the monolayer (μg of compound/ml x s), V is the liquid volume in the collection chamber (ml), A is the surface area size of the monolayer (cm^2) and c0 is the initial concentration (μg of compound/ml) in the donor chamber. The flow through the monolayer was calculated from the cumulative basolateral concentration at the appropriate point in time with the aid of the initially linear data curve (linear up to 60 min). The respective determinations were made in triplicate, such that the calculated Papp value represents the mean of three measurements. […]

[3] = test system: NHE3; details: NHE3 inhibitor; cited from earlier work

IC50 [1] [nM]	Absorbed fraction [2] [%]	SMILES	other results
		c1cncc(CN[C@@H]2C[C@@H]3C[C@H]2[C@@H]2CCCC[C@H]32)c1 (as salt: hydrochloride) [Example 8, exo/endo-(decahydro-1,4-methanonaphthalen-2-yl)-pyridin-3-ylmethyl-amine Hydrochloride]	melting point: 283 to 285 °C
340	100	c1cncc(CN[C@@H]2C[C@@H]3C[C@H]2[C@@H]2CCC[C@H]32)c1 (racemic) [Example 1, (rac)-exo/endo-(octahydro-4,7-methanoinden-5-yl)pyridin-3-ylmethylamine Hydrochloride]	
	100	c1cnc(CN[C@@H]2C[C@@H]3C[C@H]2[C@@H]2CCC[C@H]32)cn1 (racemic) [Example 18]	
2100		c1cncc(CN[C@@H]2C[C@@H]3C[C@H]2[C@H]2CCC[C@@H]32)c1 (relative stereo) [Example 6, exo/exo-(octahydro-4,7-methanoinden-5-yl)-pyridin-3-ylmethylamine Hydrochloride]	
2900		c1csc(CN[C@@H]2C[C@@H]3C[C@H]2[C@@H]2CCC[C@H]32)c1 [Example 5, exo/endo-(octahydro-4,7-methanoinden-5-yl)-thiophen-2-ylmethylamine Hydrochloride]	
	<1	C/C(=C\c1cccc(/C=C(\C)C(=O)N=C(N)N)c1)C(=O)N=C(N)N.Cl.Cl [S 2120, reference compound]	
	<5	C/C(=C\c1cc(C)ccc1/C=C(\C)C(=O)NC(=N)N)C(=O)N=C(N)N [S 3226, reference compound]	
		CC(C)[C@@H](CC[C@@H](C)[C@H]1CC[C@H]2[C@@H]3[C@H](O)C[C@H]4C[C@@H](NCCCNCCCCN)CC[C@]4(C)[C@H]3CC[C@]12C)OS(=O)(=O)O [squalamine]	time to reach maximum potency [3]: only after approximately one hour
